# Measurements: publication PMC12423301, “Astrocytic monoamine oxidase B (MAOB)–gamma-aminobutyric acid (GABA) axis as a molecular brake on repair following spinal cord injury” (Signal Transduction and Targeted Therapy, 2025)
# How the values were obtained:
# [1] = Body weight of rats on medicated drinking water; type: in vivo, rat
# Procedure: (S)-2-(((4’-Trifluoromethylbiphenyl-4-yl)methyl)amino)propanamide methane-sulfonate (KDS2010) was dissolved in distilled water. For SD rats, KDS2010 was administered via the drinking water ad libitum. […] To evaluate dose-dependent effects, additional groups received 20 mg/kg/day or 30 mg/kg/day starting at PI 2 weeks. To achieve consistent exposure across animals, we meticulously monitored the daily water intake and body weight of each rat throughout the study. As shown in the Extended Data (Supplementary Table 1), water consumption was calculated weekly via a formula based on body weight (e.g., d.w = weight × 0.09 at week 0; gradually tapering to weight × 0.075 by weeks 8–9). Importantly, all animals were confirmed to have consumed the entirety of the provided medicated water each day, ensuring full ingestion of the intended dose (10 mg/kg/day for the majority of groups, and 20/30 mg/kg/day for the dose-dependent experiments).
# [2] = design: method as in PMID 30906861; details: cited from earlier work
# [3] = Preclinical pharmacokinetics in monkeys; details: cynomolgus monkey, in vivo, iv, 5 mg/kg
# rat SCI model = assay: Western blot and GABA ELISA of rat spinal cord tissue; type: in vivo; details: PI 10w
# Procedure: Approximately 24 h after drug treatment, primary mouse spinal cord astrocytes or spinal cord tissues were lysed in RIPA buffer (MB030-0050, ROCKLAND) containing protease and phosphatase inhibitors (1861280, Thermo Fisher Scientific). The protein concentration was measured using the Pierce™ BCA Protein Assay Kit (Thermo Fisher Scientific). Each sample was then used separately for Western blot or GABA ELISA analysis. Western blot analysis was performed following established protocols,[73],[74] with 20 μg of spinal cord tissue or 10 μg of astrocyte protein samples were loaded onto SDS-PAGE gels, transferred to PVDF membranes, and blocked with 5% non-fat milk. The membranes were incubated overnight at 4 °C with primary antibodies, including rabbit anti-MAOB (1:1000, Abcam), rabbit anti-BDNF (1:1000, Abcam), mouse anti-TrkB (1:1000, R&D Systems), and rabbit anti-β-actin (1:1000, Cell Signaling Technology). […] The bands were visualized using enhanced chemiluminescence, and band intensity was quantified using ImageJ software. For enzyme-linked immunosorbent assay (ELISA), GABA quantification was performed using an ELISA kit (BA-E-2500, ImmuSmol) according to the manufacturer’s instructions, utilizing 20 μg of protein extracted from spinal cord tissues.
compound,measurement,setting,value
"CS(=O)(=O)O.C[C@H](NCc1ccc(-c2ccc(C(F)(F)F)cc2)cc1)C(N)=O [KDS2010, (S)-2-(((4’-Trifluoromethylbiphenyl-4-yl)methyl)amino)propanamide methane-sulfonate]",Weekly change in body weight,"[1]; SCI/KDS 2w 20mpk, 0w",0.00 g
same,Weekly change in body weight,"[1]; SCI/KDS 2w 20mpk, 1w",29.33 g
same,Weekly change in body weight,"[1]; SCI/KDS 2w 20mpk, 2w",13.61 g
same,Weekly change in body weight,"[1]; SCI/KDS 2w 20mpk, 3w",54.00 g
same,Weekly change in body weight,"[1]; SCI/KDS 2w 20mpk, 4s",16.28 g
same,Weekly change in body weight,"[1]; SCI/KDS 2w 20mpk, 5s",31.61 g
same,Weekly change in body weight,"[1]; SCI/KDS 2w 20mpk, 6s",12.56 g
same,Weekly change in body weight,"[1]; SCI/KDS 2w 20mpk, 7w",24.17 g
same,Weekly change in body weight,"[1]; SCI/KDS 2w 20mpk, 8w",13.00 g
same,Weekly change in body weight,"[1]; SCI/KDS 2w 20mpk, 9w",10.89 g
same,Weekly change in body weight,"[1]; SCI/KDS 2w 30mpk, 0w",0.00 g
same,Weekly change in body weight,"[1]; SCI/KDS 2w 30mpk, 1w",34.43 g
same,Weekly change in body weight,"[1]; SCI/KDS 2w 30mpk, 2w",10.86 g
same,Weekly change in body weight,"[1]; SCI/KDS 2w 30mpk, 3w",39.90 g
same,Weekly change in body weight,"[1]; SCI/KDS 2w 30mpk, 4s",17.36 g
same,Weekly change in body weight,"[1]; SCI/KDS 2w 30mpk, 5s",22.40 g
same,Weekly change in body weight,"[1]; SCI/KDS 2w 30mpk, 6s",10.84 g
same,Weekly change in body weight,"[1]; SCI/KDS 2w 30mpk, 7w",19.91 g
same,Weekly change in body weight,"[1]; SCI/KDS 2w 30mpk, 8w",17.56 g
same,Weekly change in body weight,"[1]; SCI/KDS 2w 30mpk, 9w",3.43 g
same,Weekly change in body weight,"[1]; SCI/KDS 2w, 0w",0.00 g
same,Weekly change in body weight,"[1]; SCI/KDS 2w, 1w",47.67 g
same,Weekly change in body weight,"[1]; SCI/KDS 2w, 2w",16.00 g
same,Weekly change in body weight,"[1]; SCI/KDS 2w, 3w",33.67 g
same,Weekly change in body weight,"[1]; SCI/KDS 2w, 4s",31.00 g
same,Weekly change in body weight,"[1]; SCI/KDS 2w, 5s",31.33 g
same,Weekly change in body weight,"[1]; SCI/KDS 2w, 6s",16.67 g
same,Weekly change in body weight,"[1]; SCI/KDS 2w, 7w",18.33 g
same,Weekly change in body weight,"[1]; SCI/KDS 2w, 8w",11.67 g
same,Weekly change in body weight,"[1]; SCI/KDS 2w, 9w",7.17 g
same,Weekly change in body weight,"[1]; SCI/KDS 2w, 10w",14.50 g
same,Weekly change in body weight,"[1]; SCI/KDS 2w, 11w",8.00 g
same,Weekly change in body weight,"[1]; SCI/KDS 2w, 12w",1.50 g
same,Weekly change in body weight,"[1]; SCI/KDS 2w, 13w",7.50 g
same,Weekly change in body weight,"[1]; SCI/KDS 6w, 0w",0.00 g
same,Weekly change in body weight,"[1]; SCI/KDS 6w, 1w",24.00 g
same,Weekly change in body weight,"[1]; SCI/KDS 6w, 2w",27.50 g
same,Weekly change in body weight,"[1]; SCI/KDS 6w, 3w",36.00 g
same,Weekly change in body weight,"[1]; SCI/KDS 6w, 4s",31.50 g
same,Weekly change in body weight,"[1]; SCI/KDS 6w, 5s",14.50 g
same,Weekly change in body weight,"[1]; SCI/KDS 6w, 6s",13.00 g
same,Weekly change in body weight,"[1]; SCI/KDS 6w, 7w",17.50 g
same,Weekly change in body weight,"[1]; SCI/KDS 6w, 8w",7.00 g
same,Weekly change in body weight,"[1]; SCI/KDS 6w, 9w",13.00 g
same,Weekly change in body weight,"[1]; SCI/KDS 6w, 10w",11.00 g
same,Weekly change in body weight,"[1]; SCI/KDS 6w, 11w",8.00 g
same,Weekly change in body weight,"[1]; SCI/KDS 6w, 12w",7.00 g
same,Weekly change in body weight,"[1]; SCI/KDS 6w, 13w",8.00 g
same,Weekly change in body weight,"[1]; SCI/KDS 1d, 0w",0.00 g
same,Weekly change in body weight,"[1]; SCI/KDS 1d, 1w",-44.55 g
same,Weekly change in body weight,"[1]; SCI/KDS 1d, 2w",21.82 g
same,Weekly change in body weight,"[1]; SCI/KDS 1d, 3w",23.03 g
same,Weekly change in body weight,"[1]; SCI/KDS 1d, 4s",50.91 g
same,Weekly change in body weight,"[1]; SCI/KDS 1d, 5s",28.03 g
same,Weekly change in body weight,"[1]; SCI/KDS 1d, 6s",16.82 g
same,Weekly change in body weight,"[1]; SCI/KDS 1d, 7w",19.85 g
same,Weekly change in body weight,"[1]; SCI/KDS 1d, 8w",14.70 g
same,Weekly change in body weight,"[1]; SCI/KDS 1d, 9w",7.88 g
same,Weekly change in body weight,"[1]; Sham/KDS 2w, 0w",0.00 g
same,Weekly change in body weight,"[1]; Sham/KDS 2w, 1w",33.00 g
same,Weekly change in body weight,"[1]; Sham/KDS 2w, 2w",17.00 g
same,Weekly change in body weight,"[1]; Sham/KDS 2w, 3w",32.00 g
same,Weekly change in body weight,"[1]; Sham/KDS 2w, 4s",31.00 g
same,Weekly change in body weight,"[1]; Sham/KDS 2w, 5s",21.00 g
same,Weekly change in body weight,"[1]; Sham/KDS 2w, 6s",8.00 g
same,Weekly change in body weight,"[1]; Sham/KDS 2w, 7w",25.00 g
same,Weekly change in body weight,"[1]; Sham/KDS 2w, 8w",10.00 g
same,Weekly change in body weight,"[1]; Sham/KDS 2w, 9w",10.00 g
same,Weekly change in body weight,"[1]; Sham/KDS 1d, 0w",0.00 g
same,Weekly change in body weight,"[1]; Sham/KDS 1d, 1w",26.67 g
same,Weekly change in body weight,"[1]; Sham/KDS 1d, 2w",3.33 g
same,Weekly change in body weight,"[1]; Sham/KDS 1d, 3w",30.00 g
same,Weekly change in body weight,"[1]; Sham/KDS 1d, 4s",50.00 g
same,Weekly change in body weight,"[1]; Sham/KDS 1d, 5s",25.00 g
same,Weekly change in body weight,"[1]; Sham/KDS 1d, 6s",21.67 g
same,Weekly change in body weight,"[1]; Sham/KDS 1d, 7w",18.33 g
same,Weekly change in body weight,"[1]; Sham/KDS 1d, 8w",8.33 g
same,Weekly change in body weight,"[1]; Sham/KDS 1d, 9w",23.33 g
same,permeability across the blood‒brain barrier,[2],highly permeable
same,AUC(0-inf),[3],17900 ± 2460 ng·h/mL
same,half-life,[3]; t1/2,8.65 ± 0.97 h
same,GABA levels (ELISA),rat SCI model; SCI + KDS 1 d/Re,significant reduction
same,MAOB protein level (Western blotting),rat SCI model; SCI+KDS 1d/Re vs SCI+V,significantly reduced
